Test results reported in patent US9023616B2, “Oil producing microbes and method of modification thereof” (DSM Nutritional Products AG, priority 2006, dated 2015).
Entries after “also recorded” stand apart in the source; their conditions may differ.

Assays:
[1] = test system: ONC-T18; test: Fatty acid production antagonist supplementation of ONC-T18 culture, fatty acid profile by FAME GC-FID; type: cell-based, Thraustochytrium sp. ONC-T18
Procedure: Media containing 25 g/l sea salt and 1 g/l yeast extract was autoclaved at 120° C. for 20 minutes. Sterilized glucose was added to the media at a concentration of 9 g/l. Sethoxydim (Supleco) was dissolved in dimethyl sulfoxide at a concentration of 5 mg/ml was then added to the media at to represent a final concentration of 100 µM. 1 ml of a 24 hour pre-culture of ONC-T 18 that had been cultured in the same media was added. Culturing was carried out in a shaker (130 rpm) for four days at room temperature. After the incubation period, cells were harvested by centrifugation at 4300 rpm for 10 minutes. The cell pellets were then freeze-dried, weighed and the oil was extracted from the cells.
(§1) The lipids were extracted and derivatized to fatty acid methyl esters (FAME) for gas chromatography analysis (GC). Transesterification and extraction was done using 200 mg freeze dried cells, with C19:0 as internal standard, added transesterification reaction mix (methanol:hydrochloric acid:chloroform, 10:1:1) mixed and heated at 90° C. for 2 hours, then allowed to cool at room temperature. FAMEs were extracted by adding 1 ml water, and 2 ml hexane:chloroform (4:1), and allow organic and aqueous phases to separate. The organic layer was extracted and treated with 0.5 g of anhydrous sodium sulfate to remove particulates and residual water. The organic solvents were evaporated under a stream of argon. The FAMEs were re-suspended in 5 ml of iso-octane and analyzed by GC-FID. The percent conversion was calculated by dividing the product produced by the sum of (the product produced plus the substrate added) and then multiplying by 100.
Media containing 6 g/l sea salt, 2 g/l yeast extract, and 8 g/l L-glutamic acid monosodium salt hydrate was autoclaved at 120° C. for 20 minutes. Sterilized D+-glucose was then added to this media at a concentration of 40 g/l. Cerulenin dissolved in ethanol at a concentration of 5 mg/ml was added to 250 ml flask and the solvent was evaporated for 1 hour prior to adding the media to the flask. The amount of cerulenin in the flask represented a final concentration of 20 mg/l. ONC-T18 was then added to the medium from a plate culture and culturing occurred in a shaker (130 rpm) at room temperature for four days. After the incubation period, cells were harvested by centrifugation at 4300 rpm for 10 minutes, washed once with distilled water, and then centrifuged again at 4300 rpm for 10 minutes. The cell pellets were then freeze-dried, weighed and the oil was extracted from the cells.
as §1, with “produced+the” for “produced plus the”
Media containing 6 g/l sea salt, 2 g/l yeast extract, and 8 g/l L-glutamic acid monosodium salt hydrate was autoclaved at 120° C. for 20 minutes. Sterilized D+-glucose wad then added at a concentration of 5 g/l or was not added to the media. Oleic acid was added to the media to represent a final concentration of 2 ml/l. […]

[2] = test system: Schizochytrium limacinum SR21; conditions: dose dependant; cited from earlier work
[3] = test system: ONC-T18; test: 13C labeled oleic acid incorporation into polyunsaturated fatty acids; type: cell-based, Thraustochytrium sp. ONC-T18; conditions: added to culture medium
[4] = oleic acid in combination with glucoase
[5] = presence of the antagonist, oleic acid without glucose

CCCCCCCC/C=C\CCCCCCCC(=O)O [oleic acid]
DHA accumulated in ONC-T18, change versus control (in words) ([1]; antagonist added to medium): most of the oleic acid was converted into DHA; also recorded: more DHA content was observed; also recorded: increase in the content and proportion of DHA | EPA in ONC-T18 fatty acid profile, change versus control (in words) ([1]; antagonist added to medium): elevation of the EPA content; also recorded: elevated level of EPA | adrenic acid, lipid as percentage of total fatty acid [1, 4]: 0.28% | arachidic acid, lipid as percentage of total fatty acid [1, 4]: 0.34% | arachidonic acid, lipid as percentage of total fatty acid [1, 4]: 0.46% | behenic acid, lipid as percentage of total fatty acid [1, 4]: 0.00% | docosadienoic acid, lipid as percentage of total fatty acid [1, 4]: 0.43% | docosahexaenoic acid, lipid as percentage of total fatty acid [1, 4]: 24.65% | docosapentaenoic acid n-3, lipid as percentage of total fatty acid [1, 4]: 0.39% | docosapentaenoic acid n-6, lipid as percentage of total fatty acid [1, 4]: 6.46% | eicosadienoic acid, lipid as percentage of total fatty acid [1, 4]: 0.36% | eicosapentaenoic acid, lipid as percentage of total fatty acid [1, 4]: 2.60% | eicosatetraenoic acid, lipid as percentage of total fatty acid [1, 4]: 0.24% | eicosatrienoic acid, lipid as percentage of total fatty acid [1, 4]: 0.00% | eicosenoic acid, lipid as percentage of total fatty acid [1, 4]: 0.30% | heneicosapentaenoic acid, lipid as percentage of total fatty acid [1, 4]: 0.79% | hexacosanoic acid, lipid as percentage of total fatty acid [1, 4]: 0.00% | homo-gamma-linolenic acid, lipid as percentage of total fatty acid [1, 4]: 0.30% | lignoceric acid, lipid as percentage of total fatty acid [1, 4]: 0.00% | margaric acid, lipid as percentage of total fatty acid [1, 4]: 0.17% | myristic acid, lipid as percentage of total fatty acid [1, 4]: 8.04% | myristoleic acid, lipid as percentage of total fatty acid [1, 4]: 0.00% | nervonic acid, lipid as percentage of total fatty acid [1, 4]: 0.00% | oleic acid, lipid as percentage of total fatty acid [1, 4]: 9.49% | palmitic acid, lipid as percentage of total fatty acid [1, 4]: 33.18% | palmitoleic acid, lipid as percentage of total fatty acid [1, 4]: 4.22% | pentadecanoic acid, lipid as percentage of total fatty acid [1, 4]: 0.73% | pentadecenoic acid, lipid as percentage of total fatty acid [1, 4]: 0.00% | stearic acid, lipid as percentage of total fatty acid [1, 4]: 1.60% | vaccenic acid, lipid as percentage of total fatty acid [1, 4]: 4.45% | adrenic acid, lipid as percentage of total fatty acid [1, 5]: 0.60% | arachidic acid, lipid as percentage of total fatty acid [1, 5]: 0.00% | arachidonic acid, lipid as percentage of total fatty acid [1, 5]: 0.72% | behenic acid, lipid as percentage of total fatty acid [1, 5]: 0.00% | docosadienoic acid, lipid as percentage of total fatty acid [1, 5]: 0.68% | docosahexaenoic acid, lipid as percentage of total fatty acid [1, 5]: 33.16% | docosapentaenoic acid n-3, lipid as percentage of total fatty acid [1, 5]: 0.39% | docosapentaenoic acid n-6, lipid as percentage of total fatty acid [1, 5]: 7.58% | eicosadienoic acid, lipid as percentage of total fatty acid [1, 5]: 0.51% | eicosapentaenoic acid, lipid as percentage of total fatty acid [1, 5]: 5.47% | eicosatetraenoic acid, lipid as percentage of total fatty acid [1, 5]: 0.00% | eicosatrienoic acid, lipid as percentage of total fatty acid [1, 5]: 0.00% | eicosenoic acid, lipid as percentage of total fatty acid [1, 5]: 0.00% | heneicosapentaenoic acid, lipid as percentage of total fatty acid [1, 5]: 0.20% | hexacosanoic acid, lipid as percentage of total fatty acid [1, 5]: 0.00% | homo-gamma-linolenic acid, lipid as percentage of total fatty acid [1, 5]: 0.61% | lignoceric acid, lipid as percentage of total fatty acid [1, 5]: 0.00% | margaric acid, lipid as percentage of total fatty acid [1, 5]: 0.28% | myristic acid, lipid as percentage of total fatty acid [1, 5]: 1.38% | myristoleic acid, lipid as percentage of total fatty acid [1, 5]: 0.00% | nervonic acid, lipid as percentage of total fatty acid [1, 5]: 0.00% | oleic acid, lipid as percentage of total fatty acid [1, 5]: 25.36% | palmitic acid, lipid as percentage of total fatty acid [1, 5]: 16.67% | palmitoleic acid, lipid as percentage of total fatty acid [1, 5]: 1.06% | pentadecanoic acid, lipid as percentage of total fatty acid [1, 5]: 0.49% | pentadecenoic acid, lipid as percentage of total fatty acid [1, 5]: 0.00% | stearic acid, lipid as percentage of total fatty acid [1, 5]: 1.56% | vaccenic acid, lipid as percentage of total fatty acid [1, 5]: 2.68%

Cc1ccc(C(=O)O)cc1 [p-toluic acid]
EPA concentration (in words) [2]: increasing the EPA concentration | omega-6 DPA concentration (in words) [2]: reducing the omega-6 DPA concentration

CCC/C(=N\OCC)C1=C(O)CC(CC(C)SCC)CC1=O (stereo not shown) [sethoxydim]
DHA accumulated in ONC-T18, change versus control (in words) ([1]; antagonist added to medium): increase in the content and proportion of DHA | adrenic acid, lipid as percentage of total fatty acid [1, 5]: 0.00% | arachidic acid, lipid as percentage of total fatty acid [1, 5]: 0.2% | arachidonic acid, lipid as percentage of total fatty acid [1, 5]: 0.20% | behenic acid, lipid as percentage of total fatty acid [1, 5]: 0.00% | docosadienoic acid, lipid as percentage of total fatty acid [1, 5]: 0.00% | docosahexaenoic acid, lipid as percentage of total fatty acid [1, 5]: 19.31% | docosapentaenoic acid n-3, lipid as percentage of total fatty acid [1, 5]: 0.24% | docosapentaenoic acid n-6, lipid as percentage of total fatty acid [1, 5]: 5.26% | eicosadienoic acid, lipid as percentage of total fatty acid [1, 5]: 0.14% | eicosapentaenoic acid, lipid as percentage of total fatty acid [1, 5]: 0.78% | eicosatetraenoic acid, lipid as percentage of total fatty acid [1, 5]: 0.37% | eicosatrienoic acid, lipid as percentage of total fatty acid [1, 5]: 0.00% | eicosenoic acid, lipid as percentage of total fatty acid [1, 5]: 0.00% | heneicosapentaenoic acid, lipid as percentage of total fatty acid [1, 5]: 1.09% | hexacosanoic acid, lipid as percentage of total fatty acid [1, 5]: 0.20% | homo-gamma-linolenic acid, lipid as percentage of total fatty acid [1, 5]: 0.10% | lignoceric acid, lipid as percentage of total fatty acid [1, 5]: 0.00% | margaric acid, lipid as percentage of total fatty acid [1, 5]: 1.49% | myristic acid, lipid as percentage of total fatty acid [1, 5]: 10.97% | myristoleic acid, lipid as percentage of total fatty acid [1, 5]: 0.03% | nervonic acid, lipid as percentage of total fatty acid [1, 5]: 0.00% | oleic acid, lipid as percentage of total fatty acid [1, 5]: 0.18% | palmitic acid, lipid as percentage of total fatty acid [1, 5]: 40.52% | palmitoleic acid, lipid as percentage of total fatty acid [1, 5]: 9.18% | pentadecanoic acid, lipid as percentage of total fatty acid [1, 5]: 5.5% | pentadecenoic acid, lipid as percentage of total fatty acid [1, 5]: 0.53% | stearic acid, lipid as percentage of total fatty acid [1, 5]: 1.45% | vaccenic acid, lipid as percentage of total fatty acid [1, 5]: 2.48%

Cc1ccccc1C(=O)O [toluic acid]
adrenic acid, lipid as percentage of total fatty acid [1, 5]: 0.46% | arachidic acid, lipid as percentage of total fatty acid [1, 5]: 0.23% | arachidonic acid, lipid as percentage of total fatty acid [1, 5]: 0.90% | behenic acid, lipid as percentage of total fatty acid [1, 5]: 0.00% | docosadienoic acid, lipid as percentage of total fatty acid [1, 5]: 0.06% | docosahexaenoic acid, lipid as percentage of total fatty acid [1, 5]: 23.03% | docosapentaenoic acid n-3, lipid as percentage of total fatty acid [1, 5]: 0.54% | docosapentaenoic acid n-6, lipid as percentage of total fatty acid [1, 5]: 5.95% | eicosadienoic acid, lipid as percentage of total fatty acid [1, 5]: 0.79% | eicosapentaenoic acid, lipid as percentage of total fatty acid [1, 5]: 2.95% | eicosatetraenoic acid, lipid as percentage of total fatty acid [1, 5]: 0.36% | eicosatrienoic acid, lipid as percentage of total fatty acid [1, 5]: 0.03% | eicosenoic acid, lipid as percentage of total fatty acid [1, 5]: 0.14% | heneicosapentaenoic acid, lipid as percentage of total fatty acid [1, 5]: 0.39% | hexacosanoic acid, lipid as percentage of total fatty acid [1, 5]: 0.00% | homo-gamma-linolenic acid, lipid as percentage of total fatty acid [1, 5]: 0.17% | lignoceric acid, lipid as percentage of total fatty acid [1, 5]: 0.03% | margaric acid, lipid as percentage of total fatty acid [1, 5]: 2.69% | myristic acid, lipid as percentage of total fatty acid [1, 5]: 11.19% | myristoleic acid, lipid as percentage of total fatty acid [1, 5]: 0.00% | nervonic acid, lipid as percentage of total fatty acid [1, 5]: 0.18% | oleic acid, lipid as percentage of total fatty acid [1, 5]: 0.11% | palmitic acid, lipid as percentage of total fatty acid [1, 5]: 26.90% | palmitoleic acid, lipid as percentage of total fatty acid [1, 5]: 2.36% | pentadecanoic acid, lipid as percentage of total fatty acid [1, 5]: 14.93% | pentadecenoic acid, lipid as percentage of total fatty acid [1, 5]: 0.27% | stearic acid, lipid as percentage of total fatty acid [1, 5]: 1.59% | vaccenic acid, lipid as percentage of total fatty acid [1, 5]: 3.68%

^13C labeled oleic acid
fate of 13C carbon from enriched oleic acid (in words) [3]: found in subsequent polyunsaturated fatty acids
